Tests used:
[1] = Induction of M2 macrophage polarization in C57BL/6 mouse BMDM cells assessed as fold increase in Arg1 gene level at 1 uM incubated for 24 hrs by qRT-PCR analysis; type: functional
[2] = target: RAC-alpha serine/threonine-protein kinase (Homo sapiens, UniProt P31749); assay: Inhibition of AKT1 (unknown origin); type: binding
[3] = Induction of M2 macrophage polarization in C57BL/6 mouse BMDM cells assessed as fold increase in Ym1 gene level at 1 uM incubated for 24 hrs by qRT-PCR analysis; type: functional
[4] = target: RAC-beta serine/threonine-protein kinase (Homo sapiens, UniProt P31751); assay: Inhibition of AKT2 (unknown origin); type: binding
Sequence of RAC-beta serine/threonine-protein kinase (P31751 whole entry): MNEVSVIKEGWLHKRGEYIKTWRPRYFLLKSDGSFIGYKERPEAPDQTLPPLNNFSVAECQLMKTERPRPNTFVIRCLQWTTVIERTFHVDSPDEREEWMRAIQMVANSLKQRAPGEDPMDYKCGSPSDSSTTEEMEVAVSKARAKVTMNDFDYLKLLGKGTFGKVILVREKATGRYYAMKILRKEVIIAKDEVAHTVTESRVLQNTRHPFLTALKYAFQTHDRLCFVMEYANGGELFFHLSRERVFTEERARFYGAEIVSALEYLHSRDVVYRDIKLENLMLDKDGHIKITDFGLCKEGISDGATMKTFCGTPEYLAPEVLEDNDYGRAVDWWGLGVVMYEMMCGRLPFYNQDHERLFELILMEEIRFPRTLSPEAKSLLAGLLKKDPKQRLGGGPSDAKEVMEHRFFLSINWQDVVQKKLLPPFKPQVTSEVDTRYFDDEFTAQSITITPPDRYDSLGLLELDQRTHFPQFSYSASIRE

[5] = Inhibition of LPS-induced M1 macrophage polarization in C57BL/6 mouse BMDM cells assessed as fold decrease in Inos gene level at 1 uM preincubated with LPS for 24 hrs followed by compound addition and measured after 24 hrs by qRT-PCR analysis (reference value: 524.05 +/- 24.75); type: functional
[6] = Inhibition of M1 macrophage polarization in C57BL/6 mouse BMDM cells assessed as fold decrease in Inos gene level at 1 uM incubated for 24 hrs by qRT-PCR analysis (reference value: 1); type: functional
[7] = target: T1, RAC-alpha serine/threonine-protein kinase (Mus musculus, UniProt P31750); assay: Inhibition of Akt phosphorylation at Ser473 in C57BL/6 mouse BMDM cells at 50 to 500 nM incubated for 24 hrs by Western blot analysis; type: cell-based; conditions: 0.5 µM, dose 50-500 nM
T1 sequence (P31750 whole entry): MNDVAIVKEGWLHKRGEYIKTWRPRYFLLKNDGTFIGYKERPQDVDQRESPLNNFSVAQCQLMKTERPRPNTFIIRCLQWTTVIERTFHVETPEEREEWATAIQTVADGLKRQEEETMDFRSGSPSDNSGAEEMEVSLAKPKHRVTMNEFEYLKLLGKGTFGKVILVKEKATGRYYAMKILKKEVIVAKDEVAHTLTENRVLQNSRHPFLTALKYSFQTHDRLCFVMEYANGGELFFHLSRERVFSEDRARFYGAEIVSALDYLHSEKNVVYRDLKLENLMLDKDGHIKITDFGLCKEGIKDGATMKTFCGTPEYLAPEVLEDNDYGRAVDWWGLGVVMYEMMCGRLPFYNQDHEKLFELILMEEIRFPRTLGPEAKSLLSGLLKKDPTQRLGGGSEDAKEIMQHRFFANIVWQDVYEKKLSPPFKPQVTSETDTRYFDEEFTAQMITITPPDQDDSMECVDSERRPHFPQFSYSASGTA

[8] = target: T1, RAC-alpha serine/threonine-protein kinase; assay: Inhibition of LPS-induced Akt phosphorylation at Ser473 in C57BL/6 mouse BMDM cells at 50 to 500 nM incubated for 24 hrs by Western blot analysis; type: cell-based; conditions: 0.5 µM, dose 50-500 nM

Sequence of RAC-alpha serine/threonine-protein kinase (Homo sapiens, UniProt P31749) (P31749 whole entry): as the sequence (P31750 whole entry) above, with N2S, S50A, A100T, R112K, T117E, T389K, N410G, D415H counted along it

| SMILES | fold change (FC) [1] | IC50 [2] | fold change (FC) [3] | IC50 [4] | fold change (FC) [5] | fold change (FC) [6] | inhibition (INH) [7] | inhibition (INH) [8] |
| --- | --- | --- | --- | --- | --- | --- | --- | --- |
| CC(C)c1cc(C(=O)N[C@@H]2CNCC[C@H]2c2ccc(F)c(F)c2)ccc1-c1c(Cl)cnn1C.Cl | 2.77 | 69.3 nM | 5.03 | – | – | – | – | – |
| Cn1ncc(Cl)c1-c1ccc(C(=O)N[C@@H]2CNCC[C@H]2c2ccc(F)c(F)c2)cc1 | 2.41 | 5 nM | 8.63 | – | – | – | – | – |
| CCCc1cc(C(=O)N[C@@H]2CNCC[C@H]2c2ccc(F)c(F)c2)ccc1-c1c(Cl)cnn1C.Cl | 1.92 | 245 nM | 3.47 | – | – | – | – | – |
| Cl.O=C(N[C@@H]1CNCC[C@H]1c1ccc(F)c(F)c1)c1c(F)cc(-c2ccn[nH]2)cc1Cl | 1.39 | 69.2 nM | 1.94 | – | – | – | – | – |
| Cl.O=C(N[C@@H]1CNCC[C@H]1c1ccc(F)c(F)c1)c1c(F)cc(-c2ccn[nH]2)cc1F | 1.72 | 28 nM | 8.14 | > 1000 nM | – | – | – | – |
| CCCc1cc(C(=O)N[C@@H]2CNCC[C@H]2c2ccc(F)c(F)c2)ccc1-c1c(Br)cnn1C.Cl | 1.42 | > 1000 nM | 3.86 | > 1000 nM | – | – | – | – |
| Cl.O=C(N[C@@H]1CNCC[C@H]1c1ccc(F)c(F)c1)c1c(F)cc(-c2[nH]ncc2Br)cc1F | 2.38 | > 1000 nM | 19.79 | – | – | – | – | – |
| Cn1ncc(Br)c1-c1ccc2c(c1)CN([C@@H]1CNCC[C@H]1c1ccc(F)c(F)c1)C2=O | 1.93 | 1.6 nM | 7.52 | 2.7 nM | – | – | – | – |
| Cc1cc(C(=O)N[C@@H]2CNCC[C@H]2c2ccc(F)c(F)c2)ccc1-c1ccnn1C.Cl | 8.13 | 102 nM | 14.49 | – | 313.7 | 0.82 | – | – |
| CC(C)c1cc(C(=O)N[C@@H]2CNCC[C@H]2c2ccc(F)c(F)c2)ccc1-c1ccnn1C.Cl | 2.06 | 555 nM | 2.06 | > 1000 nM | – | – | – | – |
| Cl.Cn1ncc(Cl)c1-c1ccc(C(=O)N[C@@H]2CNCC[C@H]2c2ccc(F)c(F)c2)cc1C1CC1 | 2.62 | 143 nM | 3.51 | – | – | – | – | – |
| CCCc1cc(C(=O)N[C@@H]2CNCC[C@H]2c2ccc(F)c(F)c2)ccc1-c1ccnn1C.Cl | 1.43 | 92 nM | 3.84 | – | – | – | – | – |
| Cc1cc(C(=O)N[C@@H]2CNCC[C@H]2c2ccc(F)c(F)c2)ccc1-c1c(Cl)cnn1C.Cl | 1.55 | 299 nM | 12.2 | – | – | – | Not Active | Not Active |
| Cn1nccc1-c1ccc2c(c1)CN([C@@H]1CNCC[C@H]1c1ccc(F)c(F)c1)C2=O | 2.24 | 4.3 nM | 3.59 | – | – | – | – | – |
| Cc1cc(C(=O)N[C@@H]2CNCC[C@H]2c2ccc(F)c(F)c2)ccc1-c1c(Br)cnn1C.Cl | 2.62 | 341 nM | 4.87 | > 1000 nM | – | – | – | – |
| CC(C)c1cc(C(=O)N[C@@H]2CNCC[C@H]2c2ccc(F)c(F)c2)ccc1-c1c(Br)cnn1C.Cl | 2.6 | > 1000 nM | 4.49 | > 1000 nM | – | – | – | – |
| Cl.Cn1nccc1-c1ccc(C(=O)N[C@@H]2CNCC[C@H]2c2ccc(F)c(F)c2)cc1C1CC1 | 3.31 | 157 nM | 1.38 | > 1000 nM | – | – | – | – |

— ChEMBL document CHEMBL5352415, “Discovery of new macrophage M2 polarization modulators as multiple sclerosis treatment agents that enable the inflammation microenvironment remodeling” (Eur J Med Chem, 2022)
